From publication PMC9774241, “Associating Biological Activity and Predicted Structure of Antimicrobial Peptides from Amphibians and Insects” (Antibiotics, 2022)
Values after ≈ are worked out from the molar mass of the structure shown. Residues, ends and D or L forms follow the SMILES beside them.

Columns and labels:
Format in all cases: cell-based
Details in all cases: broth microdilution in MHB, peptide 128 down to 0.5 µg/mL, 20–24 h at 37 °C, no visible growth; range of three independent experiments
[1] = tested on: Escherichia coli ATCC 25922
Experimental: (§1) Bacteria were grown overnight at 37 °C in Mueller-Hinton Broth (MHB; Sigma-Aldrich, St. Louis. MO, USA) in a shaking incubator and aliquoted into cryovials with a 50% glycerol solution in a 1:1 ratio. No additives were added to the MHB during the growth of bacterial isolates. Glycerol stocks were stored at −80 °C.
(§2) The antimicrobial activity of the putative AMPs was determined by a broth microdilution assay as described by the Clinical and Laboratory Standards Institute, with the published adaptations for testing of cationic peptides. Escherichia coli 25922 and Staphylococcus aureus 29213 isolates were purchased from the American Type Culture Collection (ATCC; Manassas, VA, USA). A human clinical isolate of Salmonella enterica serovar Enteritidis was provided by the BC Centre for Disease Control. Bacteria from stocks stored at −80 °C were streaked onto nonselective Columbia blood agar with 5% sheep blood (Oxoid) and incubated overnight at 37 °C. Next, 2–4 colonies were streaked onto a new agar plate to ensure uniform health of colonies used in the broth microdilution assay. Isolated colonies were suspended in MHB and the optical density was measured with a spectrophotometer to create an initial inoculum concentration of approximately 1 × 10^8 cfu/mL. The inoculum was diluted 1:250 to a final concentration of 2–8 × 10^5 cfu/mL, which was confirmed by performing a Total Viability Count (TVC). The TVC consisted of plating a 1:1000 dilution of the final inoculum on nonselective media and was also used to confirm the health and purity of the inoculum in each trial.
(§3) Lyophilized 80 µg peptide aliquots synthesized by GenScript (Piscataway, NJ, USA) were resuspended to 1.28 mg/mL with UltraPure water (Thermo Fisher Scientific, Waltham, MA, USA) and serially diluted in polypropylene 96-well microtiter plates (Greiner Bio-One #650261, Kremsmünster, Austria) from 128 down to 0.5 µg/mL. Two columns per plate were reserved for growth and sterility controls. Inoculum was added to the wells containing the peptide and the growth control. Plates were incubated for 20–24 h at 37 °C. The minimum inhibitory concentration (MIC) was determined as the lowest peptide concentration where there was no visible bacterial growth.

[2] = tested on: Staphylococcus aureus ATCC 29213
Experimental: as §1, §2, §3

[3] = tested on: Salmonella enterica serovar Enteritidis (human clinical isolate)
Experimental: as §1, §2, §3

Compound	MIC, E. coli ATCC 25922 [1]	MIC, S. aureus ATCC 29213 [2]	MIC, Salmonella Enteritidis [3]
CC[C@H](C)[C@H](NC(=O)CNC(=O)[C@H](CCCNC(=N)N)NC(=O)[C@H](CCCCN)NC(=O)[C@H](CCCCN)NC(=O)[C@H](CCCNC(=N)N)NC(=O)[C@@H]1CCCN1C(=O)[C@@H](NC(=O)[C@H](CCSC)NC(=O)[C@H](CC(C)C)NC(=O)[C@@H](N)CCCCN)[C@@H](C)CC)C(=O)N[C@@H](Cc1ccccc1)C(=O)NCC(=O)NCC(=O)N[C@@H](CC(C)C)C(=O)N[C@@H](CC(C)C)C(=O)N[C@@H](CCCCN)C(=O)N[C@H](C(=O)NCC(=O)N[C@@H](CCCCN)C(=O)N[C@@H](CCCCN)C(=O)N[C@H](C(=O)N[C@@H](C)C(=O)N[C@@H](CS)C(=O)NCC(=O)N[C@@H](CC(C)C)C(=O)N[C@@H](CO)C(=O)NCC(=O)N[C@@H](CC(C)C)C(=O)N[C@@H](CS)C(=O)O)[C@@H](C)CC)C(C)C [OdTo4] (H-KLMIPRKKRGIFGGLLKVGKKIACGLSGLC-OH; N-terminus and C-terminus assumed)	8 to 16 µg/mL	16 µg/mL (≈ 5.02 µM)	16 µg/mL (≈ 5.02 µM)
CC(C)C[C@H](NC(=O)CNC(=O)[C@@H](NC(=O)[C@@H](NC(=O)CNC(=O)[C@H](CS)NC(=O)[C@H](CC(C)C)NC(=O)[C@@H](NC(=O)[C@H](CCCCN)NC(=O)[C@H](CCCCN)NC(=O)CNC(=O)[C@@H](NC(=O)CNC(=O)[C@H](CC(C)C)NC(=O)[C@@H](NC(=O)[C@H](CCCCN)NC(=O)CNC(=O)[C@H](CC(C)C)NC(=O)[C@H](CC(C)C)NC(=O)CN)C(C)C)C(C)C)C(C)C)C(C)C)[C@@H](C)O)C(=O)N[C@@H](CS)C(=O)O [PeNi1] (H-GLLGKVLGVGKKVLCGVTGLC-OH)	4 µg/mL (≈ 1.99 µM)	4 µg/mL (≈ 1.99 µM)	8 to 16 µg/mL
CC(C)C[C@H](NC(=O)CNC(=O)[C@H](CO)NC(=O)[C@@H](NC(=O)[C@@H](NC(=O)[C@H](CS)NC(=O)[C@H](CC(C)C)NC(=O)[C@@H](NC(=O)[C@H](CCCCN)NC(=O)[C@H](CCCCN)NC(=O)CNC(=O)[C@@H](NC(=O)CNC(=O)[C@H](CC(C)C)NC(=O)[C@@H](NC(=O)[C@H](CCCCN)NC(=O)CNC(=O)[C@H](CC(C)C)NC(=O)[C@H](CC(C)C)NC(=O)CN)C(C)C)C(C)C)C(C)C)C(C)C)C(C)C)C(=O)N[C@@H](CS)C(=O)O [PeNi2] (H-GLLGKVLGVGKKVLCVVSGLC-OH; N-terminus and C-terminus assumed)	4 µg/mL (≈ 1.96 µM)	4 µg/mL (≈ 1.96 µM)	16 to 32 µg/mL
CC(C)C[C@H](NC(=O)CN)C(=O)N[C@@H](CC(C)C)C(=O)NCC(=O)N[C@@H](CCCCN)C(=O)N[C@H](C(=O)N[C@@H](CC(C)C)C(=O)NCC(=O)N[C@H](C(=O)NCC(=O)N[C@@H](CCCCN)C(=O)N[C@@H](CCCCN)C(=O)N[C@H](C(=O)N[C@@H](CC(C)C)C(=O)N[C@@H](CS)C(=O)NCC(=O)N[C@H](C(=O)N[C@H](C(=O)NCC(=O)N[C@@H](CCCNC(=N)N)C(=O)N[C@@H](CCC(=O)O)C(=O)N[C@@H](CCCNC(=N)N)C(=O)N[C@@H](CS)C(=O)N[C@@H](CCC(N)=O)C(=O)O)[C@@H](C)O)C(C)C)C(C)C)C(C)C)C(C)C [PeNi5] (H-GLLGKVLGVGKKVLCGVTGRERCQ-OH; N-terminus and C-terminus assumed)	32 µg/mL (≈ 12.9 µM)	> 128 µg/mL	64 µg/mL (≈ 25.9 µM)
CC[C@H](C)[C@H](NC(=O)[C@@H](N)C(C)C)C(=O)N1CCC[C@H]1C(=O)N[C@@H](Cc1ccccc1)C(=O)N[C@H](C(=O)N[C@@H](C)C(=O)N[C@@H](CO)C(=O)N[C@H](C(=O)N[C@@H](C)C(=O)N[C@@H](C)C(=O)N[C@@H](CCC(=O)O)C(=O)N[C@@H](CCSC)C(=O)N[C@@H](CCSC)C(=O)N[C@@H](Cc1c[nH]cn1)C(=O)N[C@@H](Cc1c[nH]cn1)C(=O)N[C@H](C(=O)N[C@@H](Cc1ccc(O)cc1)C(=O)N[C@@H](CS)C(=O)N[C@@H](C)C(=O)N[C@@H](C)C(=O)N[C@@H](CO)C(=O)N[C@@H](CCCCN)C(=O)N[C@@H](CCCNC(=N)N)C(=O)N[C@@H](CS)C(=O)N[C@@H](CCCCN)C(=O)N[C@@H](CC(N)=O)C(=O)O)C(C)C)C(C)C)C(C)C [PeNi7] (H-VIPFVASVAAEMMHHVYCAASKRCKN-OH; N-terminus and C-terminus assumed)	128 µg/mL (≈ 44.7 µM)	> 128 µg/mL	> 128 µg/mL
CC[C@H](C)[C@H](NC(=O)CN)C(=O)N[C@@H](CC(C)C)C(=O)N[C@@H](CC(C)C)C(=O)N[C@@H](CC(N)=O)C(=O)N[C@H](C(=O)N[C@@H](CC(C)C)C(=O)N[C@@H](CCCCN)C(=O)NCC(=O)N[C@@H](C)C(=O)N[C@@H](C)C(=O)N[C@@H](CCCCN)C(=O)N[C@@H](CC(N)=O)C(=O)N[C@H](C(=O)N[C@@H](C)C(=O)NCC(=O)N[C@H](C(=O)N[C@@H](CC(C)C)C(=O)N[C@@H](CC(C)C)C(=O)N[C@@H](CC(=O)O)C(=O)N[C@@H](CCCCN)C(=O)N[C@@H](CC(C)C)C(=O)N[C@@H](CCCCN)C(=O)N[C@@H](CS)C(=O)N[C@@H](CCCCN)C(=O)N[C@H](C(=O)N[C@H](C(=O)NCC(=O)NCC(=O)N[C@@H](CS)C(=O)O)[C@@H](C)O)[C@@H](C)CC)C(C)C)C(C)C)[C@@H](C)O [PeNi8] (H-GILLNTLKGAAKNVAGVLLDKLKCKITGGC-OH; N-terminus and C-terminus assumed)	8 µg/mL (≈ 2.66 µM)	4 to 8 µg/mL	64 µg/mL (≈ 21.2 µM)
CC[C@H](C)[C@H](NC(=O)[C@H](CCCCN)NC(=O)CNC(=O)[C@H](CC(C)C)NC(=O)[C@H](CC(C)C)NC(=O)CN)C(=O)N[C@@H](CC(C)C)C(=O)NCC(=O)N[C@H](C(=O)NCC(=O)N[C@@H](CCCCN)C(=O)N[C@@H](CCCCN)C(=O)N[C@H](C(=O)N[C@@H](CC(C)C)C(=O)N[C@@H](CS)C(=O)NCC(=O)N[C@H](C(=O)N[C@@H](CO)C(=O)NCC(=O)N[C@@H](CC(C)C)C(=O)N[C@@H](CS)C(=O)O)C(C)C)C(C)C)C(C)C [PeNi9] (H-GLLGKILGVGKKVLCGVSGLC-OH)	2 to 4 µg/mL	4 to 8 µg/mL	8 to 16 µg/mL
CC[C@H](C)[C@H](NC(=O)CNC(=O)[C@H](C)NC(=O)[C@@H](NC(=O)[C@H](CC(N)=O)NC(=O)[C@H](CCCCN)NC(=O)[C@H](C)NC(=O)[C@H](C)NC(=O)CNC(=O)[C@H](CCCCN)NC(=O)[C@@H](NC(=O)[C@@H](NC(=O)[C@H](CC(=O)O)NC(=O)[C@H](CC(C)C)NC(=O)[C@H](CC(C)C)NC(=O)[C@H](CC(C)C)NC(=O)CN)[C@@H](C)O)C(C)C)C(C)C)C(=O)N[C@@H](CC(C)C)C(=O)N[C@@H](CC(C)C)C(=O)N[C@@H](CC(N)=O)C(=O)N[C@@H](CCCCN)C(=O)N[C@@H](CC(C)C)C(=O)N[C@@H](CCCCN)C(=O)N[C@@H](CS)C(=O)N[C@@H](CCCCN)C(=O)N[C@H](C(=O)N[C@H](C(=O)NCC(=O)N[C@@H](CC(=O)O)C(=O)N[C@@H](CS)C(=O)O)[C@@H](C)O)C(C)C [PeNi10] (H-GLLLDTVKGAAKNVAGILLNKLKCKVTGDC-OH; N-terminus and C-terminus assumed)	8 µg/mL (≈ 2.62 µM)	16 to 32 µg/mL	64 to 128 µg/mL
CC[C@H](C)[C@H](NC(=O)CN)C(=O)N[C@@H](CC(C)C)C(=O)N[C@H](C(=O)N[C@@H](CC(=O)O)C(=O)N[C@H](C(=O)N[C@@H](CC(C)C)C(=O)N[C@@H](CCCCN)C(=O)NCC(=O)N[C@@H](C)C(=O)N[C@@H](C)C(=O)N[C@@H](CCCCN)C(=O)N[C@@H](CC(N)=O)C(=O)N[C@H](C(=O)N[C@@H](C)C(=O)NCC(=O)N[C@H](C(=O)N[C@@H](CC(C)C)C(=O)N[C@@H](CC(C)C)C(=O)N[C@@H](CC(=O)O)C(=O)N[C@@H](CCCCN)C(=O)N[C@@H](CC(C)C)C(=O)N[C@@H](CCCCN)C(=O)N[C@@H](CS)C(=O)N[C@@H](CCCCN)C(=O)N[C@H](C(=O)N[C@H](C(=O)NCC(=O)NCC(=O)N[C@@H](CS)C(=O)O)[C@@H](C)O)[C@@H](C)CC)C(C)C)C(C)C)[C@@H](C)O)[C@@H](C)O [PeNi11] (H-GILTDTLKGAAKNVAGVLLDKLKCKITGGC-OH; N-terminus and C-terminus assumed)	8 to 16 µg/mL	64 µg/mL (≈ 21.3 µM)	128 µg/mL (≈ 42.6 µM)
